Experimental data published in PMC6356579, “Mass Spectrometry Analysis and Biological Characterization of the Predatory Ant Odontomachus monticola Venom and Venom Sac Components” (Toxins, 2019).
Where two headings read alike, the source gives them in different places. Marks after values point to notes of the source that are not given here. Bridge positions count the residues as written; N and C are the ends. Ends that are not written are not given here. I, II: the chains in the order shown.

Key:
[1] = test system: S. cerevisiae (NBRC 10217); assay type: cell-based, Saccharomyces cerevisiae; conditions: minimum inhibitory concentration; synthetic peptides; method as described previously [6]
Description: (§1) Pilosulin-like peptides 1–6 were chemically synthesized by the 9-fluorenylmethyloxycarbonyl (Fmoc) method, and we examined their biological activities (Table 3). We synthesized homodimeric pilosulin-like peptide 4, which was linked by a single disulfide bond. […] These activities were higher than those of magainin, a well-known Xenopus laevis antimicrobial peptide. […] The cysteine residue of pilosulin-like peptide 4 may be important for antifungal activity.
(§2) Pilosulin-like peptides 1–6 were prepared using Fmoc chemistry by GenScript (Nanjing, Jiangsu, China). The peptides were purified by RP-HPLC with a preparative C18 column. The purity and molecular weight of the final peptides were verified by HPLC and MS. Antimicrobial, hemolytic, and histamine-releasing activities were measured as described previously.

rat mast cells [2] = assay: Histamine-releasing activity; assay type: cell-based; conditions: peptide at 10 μM
Procedure: as §2

Hemolytic activity = assay type: cell-based; conditions: for Hemolytic Activity (%) at 10 μM: peptide at 10 μM; for Hemolytic Activity (%) at 50 μM: peptide at 50 μM
Procedure: as §2

S. aureus (NBRC 12732) = assay type: cell-based, Staphylococcus aureus; conditions: minimum inhibitory concentration; synthetic peptides; method as described previously [6]
Description: as §1, §2

E. coli (NBRC 14237) = assay type: cell-based, Escherichia coli; conditions: minimum inhibitory concentration; synthetic peptides; method as described previously [6]
Description: as §1, §2

[3] = peptide at 10 μM; ref Shigeri et al. [24]; cited from earlier work
Procedure: Table 3 Biological properties of O. monticola pilosulin-like peptides. | column: Hemolytic Activity (%) / at 10 μM

rat mast cells [4] = conditions: peptide at 10 μM; ref Shigeri et al. [24]; cited from earlier work
Procedure: Table 3 Biological properties of O. monticola pilosulin-like peptides. | column: Histamine-Releasing Activity at 10 μM (%)

I: GVKELFGKAWGLVKKHLPKACGLLGYVKQ-OH / II: GVKELFGKAWGLVKKHLPKACGLLGYVKQ-OH (disulfide I:21-II:21) [PLP4]
MIC, S. cerevisiae (NBRC 10217) [1]: <3.1 µM | Histamine-Releasing Activity at 10 μM (%) (rat mast cells [2]): 66.4% | Histamine-Releasing Activity at 10 μM (%) (rat mast cells [2]; listed as Pilosulin-like peptide 4): comparable to that of melittin | Hemolytic Activity (%) at 10 μM (Hemolytic activity): Negative | Hemolytic Activity (%) at 50 μM (Hemolytic activity): 10.5% | MIC, S. aureus (NBRC 12732) (S. aureus (NBRC 12732)): <3.1 µM | MIC, E. coli (NBRC 14237) (E. coli (NBRC 14237)): <3.1 µM

GILDWGKKVMDWIKDKM-NH2 [PLP1]
MIC, S. cerevisiae (NBRC 10217) [1]: <50 µM | Hemolytic Activity (%) at 10 μM (Hemolytic activity): Negative | Hemolytic Activity (%) at 50 μM (Hemolytic activity): Negative | MIC, S. aureus (NBRC 12732) (S. aureus (NBRC 12732)): <3.1 µM | MIC, E. coli (NBRC 14237) (E. coli (NBRC 14237)): <3.1 µM

Magainin [reference compound]
MIC, S. cerevisiae (NBRC 10217) [1]: Negative | MIC, S. aureus (NBRC 12732) (S. aureus (NBRC 12732)): <25 µM | MIC, E. coli (NBRC 14237) (E. coli (NBRC 14237)): <12.5 µM

Melittin: a honey bee hemolytic peptide
Hemolytic Activity (%) at 10 μM [3]: 100.0 ^b % | Histamine-Releasing Activity at 10 μM (%) (rat mast cells [4]): 64.3 ^b %

Mastoparan
Hemolytic Activity (%) at 10 μM [3]: 13.5 ^b % | Histamine-Releasing Activity at 10 μM (%) (rat mast cells [4]): 31.1 ^b %

IKGKKIMKNMGKAMKIAGKVAKAMAPIVVPLIVSAA-NH2 [PLP6]
Hemolytic Activity (%) at 10 μM (Hemolytic activity): Negative | Hemolytic Activity (%) at 50 μM (Hemolytic activity): Negative | MIC, S. aureus (NBRC 12732) (S. aureus (NBRC 12732)): <3.1 µM | MIC, E. coli (NBRC 14237) (E. coli (NBRC 14237)): <3.1 µM

GWGSIFKTVGKMIAKAAVKAAPEAISAMASQNE [PLP2]
MIC, S. cerevisiae (NBRC 10217) [1]: <50 µM | Hemolytic Activity (%) at 10 μM (Hemolytic activity): Negative | Hemolytic Activity (%) at 50 μM (Hemolytic activity): 10.4% | MIC, S. aureus (NBRC 12732) (S. aureus (NBRC 12732)): <6.2 µM | MIC, E. coli (NBRC 14237) (E. coli (NBRC 14237)): <6.2 µM

KIKWGKIFKKGGKLIGKTALEAAANAAASEAISAMASQNE [PLP3]
MIC, S. cerevisiae (NBRC 10217) [1]: <50 µM | Hemolytic Activity (%) at 10 μM (Hemolytic activity): Negative | Hemolytic Activity (%) at 50 μM (Hemolytic activity): Negative | MIC, S. aureus (NBRC 12732) (S. aureus (NBRC 12732)): <25 µM | MIC, E. coli (NBRC 14237) (E. coli (NBRC 14237)): <3.1 µM

IWGALLGTLIPAITSAIQ-NH2 [PLP5]
Hemolytic Activity (%) at 10 μM (Hemolytic activity): 6.9% | Hemolytic Activity (%) at 50 μM (Hemolytic activity): 94.8% | MIC, E. coli (NBRC 14237) (E. coli (NBRC 14237)): <50 µM
